Our source for the Ki values is ChEMBL document CHEMBL1136840 (Bioorg Med Chem Lett, 2009).

For this assay, the target named is T1, Carbonic anhydrase 15 (Mus musculus, UniProt Q99N23).
T1 sequence (Q99N23 whole entry): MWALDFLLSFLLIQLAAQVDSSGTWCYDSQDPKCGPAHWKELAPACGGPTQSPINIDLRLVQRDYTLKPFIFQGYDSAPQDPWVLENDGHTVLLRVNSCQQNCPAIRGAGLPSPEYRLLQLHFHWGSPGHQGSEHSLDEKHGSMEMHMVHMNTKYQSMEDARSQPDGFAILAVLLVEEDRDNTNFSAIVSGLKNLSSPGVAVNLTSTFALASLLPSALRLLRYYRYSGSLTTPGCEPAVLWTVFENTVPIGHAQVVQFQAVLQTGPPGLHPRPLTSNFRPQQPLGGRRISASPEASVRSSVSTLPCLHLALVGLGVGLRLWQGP

Regarding `NS(N)(=O)=O` [SULFAMIDE], affinity was put at a Ki of 37.4 µM.
